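Grown in 96-well plates, cells were treated for 48 hours with each compound at five concentrations. Insufficient inhibition: endpoint recorded as highest concentration tested. At the GI50, growth is halved.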 Active and inactive are the calls of the source. Rule as the data show it: active = GI50 up to about 1.1 µM and inactive = higher.
Assays:
Experiment in all cases: DTP human tumour cell line panel, 48 h
[1] = test system: OVCAR-4
[2] = test system: SN12C
[3] = test system: OVCAR-3
[4] = test system: SK-MEL-5
[5] = test system: UACC-257
[6] = test system: HT-29
[7] = test system: RPMI-8226
[8] = test system: SK-OV-3
[9] = test system: U-251
[10] = test system: SW-620
[11] = test system: ACHN
[12] = test system: EKVX
[13] = test system: 786-0
[14] = test system: CCRF-CEM
[15] = test system: RXF 393
[16] = test system: KM12
[17] = test system: Malme-3M
[18] = test system: SF-295
[19] = test system: A498
[20] = test system: HOP-62
[21] = test system: SNB-19
[22] = test system: KM-20L2
[23] = test system: UO-31
[24] = test system: LXFL 529
[25] = test system: LOX IMVI
[26] = test system: SF-539
[27] = test system: A549
[28] = test system: SNB-78
[29] = test system: HL-60
[30] = test system: CAKI-1
[31] = test system: DMS-114
[32] = test system: HOP-92
[33] = test system: MOLT-4
[34] = test system: HCT-15
[35] = test system: NCI-H226
[36] = test system: UACC-62
[37] = test system: XF498
[38] = test system: DMS-273
[39] = test system: HCT-116
[40] = test system: SK-MEL-2
[41] = test system: HOP-18
[42] = test system: NCI-H23
[43] = test system: OVCAR-8
[44] = test system: M14
[45] = test system: TK-10
[46] = test system: SNB-75
[47] = test system: K562
[48] = test system: IGROV-1
[49] = test system: DLD-1
[50] = test system: NCI-H460
[51] = test system: COLO 205
[52] = test system: HCC 2998
[53] = test system: OVCAR-5
[54] = test system: M19-MEL
[55] = test system: NCI-H522
[56] = test system: SF-268
[57] = test system: SR
[58] = test system: SK-MEL-28

In the case of `COc1nc(NC2OC(COC(C)=O)C(OC(C)=O)C(OC(C)=O)C2OC(C)=O)c2c(OC(C)=O)cc(=O)oc2n1` (stereo not drawn), the GI50 [1] is reported as > 100 µM (inactive), the GI50 [2] is reported as > 100 µM (inactive) and the GI50 [3] is reported as > 100 µM (inactive). For the same compound, the GI50 [4] was > 100 µM (inactive), the GI50 [5] was > 100 µM (inactive) and the GI50 [6] was > 100 µM (inactive). For the same compound, the GI50 [7] was > 100 µM (inactive), the GI50 [8] was > 100 µM (inactive) and the GI50 [9] was > 100 µM (inactive). The GI50 [10] was > 100 µM (inactive), the GI50 [11] was 12.5 µM (inactive) and the GI50 [12] was > 100 µM (inactive). For the same compound, the GI50 [13] was > 100 µM (inactive), the GI50 [14] was > 100 µM (inactive) and the GI50 [15] was > 100 µM (inactive). For the same compound, the GI50 [16] was > 100 µM (inactive), the GI50 [17] was > 100 µM (inactive) and the GI50 [18] was > 100 µM (inactive). For the same compound, the GI50 [19] was 15.9 µM (inactive), the GI50 [20] was > 100 µM (inactive) and the GI50 [21] was > 100 µM (inactive). For the same compound, the GI50 [22] was > 100 µM (inactive), the GI50 [23] was > 100 µM (inactive) and the GI50 [24] was > 100 µM (inactive). The GI50 [25] was > 100 µM (inactive), the GI50 [26] was > 100 µM (inactive) and the GI50 [27] was > 100 µM (inactive). The GI50 [28] was > 100 µM (inactive), the GI50 [29] was > 100 µM (inactive) and the GI50 [30] was > 100 µM (inactive). The GI50 [31] was > 100 µM (inactive), the GI50 [32] was > 100 µM (inactive) and the GI50 [33] was > 100 µM (inactive). The GI50 [34] was > 100 µM, the GI50 [35] was > 100 µM (inactive) and the GI50 [36] was > 100 µM (inactive). For the same compound, the GI50 [37] was > 100 µM (inactive), the GI50 [38] was > 100 µM (inactive) and the GI50 [39] was > 100 µM (inactive). For the same compound, the GI50 [40] was > 100 µM (inactive), the GI50 [41] was > 100 µM (inactive) and the GI50 [42] was > 100 µM (inactive). The GI50 [43] was > 100 µM (inactive), the GI50 [44] was > 100 µM (inactive) and the GI50 [45] was > 100 µM (inactive). The GI50 [46] was > 100 µM (inactive), the GI50 [47] was > 100 µM (inactive) and the GI50 [48] was > 100 µM (inactive). The GI50 [49] was > 100 µM (inactive), the GI50 [50] was 13.8 µM (inactive) and the GI50 [51] was > 100 µM (inactive). The GI50 [52] was > 100 µM (inactive), the GI50 [53] was > 100 µM (inactive) and the GI50 [54] was > 100 µM (inactive).
In the case of `N=S(c1ccccc1)c1ccccc1[N+](=O)[O-]` (stereo not drawn), the GI50 [1] is reported as 14.8 µM (inactive), the GI50 [2] is reported as 15.8 µM (inactive) and the GI50 [3] is reported as 10.6 µM (inactive). The GI50 [4] was 15 µM (inactive), the GI50 [5] was 18.1 µM (inactive) and the GI50 [6] was 21.5 µM (inactive). For the same compound, the GI50 [7] was 18.2 µM (inactive), the GI50 [8] was 33 µM (inactive) and the GI50 [9] was 17.4 µM (inactive). The GI50 [10] was 16.9 µM (inactive), the GI50 [11] was 17.3 µM (inactive) and the GI50 [12] was 19.8 µM (inactive). For the same compound, the GI50 [13] was 14.9 µM (inactive), the GI50 [14] was 11.1 µM (inactive) and the GI50 [16] was 18.1 µM (inactive). For the same compound, the GI50 [55] was 4.71 µM (inactive), the GI50 [17] was 15.1 µM (inactive) and the GI50 [18] was 18.8 µM (inactive). For the same compound, the GI50 [19] was 34.3 µM (inactive), the GI50 [20] was 25.6 µM (inactive) and the GI50 [21] was 18.5 µM (inactive). For the same compound, the GI50 [22] was 21 µM (inactive), the GI50 [23] was 16 µM (inactive) and the GI50 [24] was 16.6 µM (inactive). The GI50 [25] was 13.1 µM (inactive), the GI50 [26] was 18.5 µM (inactive) and the GI50 [27] was 16.7 µM (inactive). For the same compound, the GI50 [28] was 36.1 µM (inactive), the GI50 [29] was 12.9 µM (inactive) and the GI50 [30] was 13.7 µM (inactive). The GI50 [31] was 18.2 µM (inactive), the GI50 [33] was 25.3 µM (inactive) and the GI50 [34] was 16.6 µM. For the same compound, the GI50 [35] was 11.9 µM (inactive), the GI50 [36] was 16.8 µM (inactive) and the GI50 [37] was 3.16 µM (inactive). For the same compound, the GI50 [38] was 18.4 µM (inactive), the GI50 [39] was 17.8 µM (inactive) and the GI50 [56] was 19.8 µM (inactive). The GI50 [40] was 29.3 µM (inactive), the GI50 [41] was 32.6 µM (inactive) and the GI50 [42] was 20 µM (inactive). For the same compound, the GI50 [43] was 23.8 µM (inactive), the GI50 [44] was 14.4 µM (inactive) and the GI50 [45] was 20.4 µM (inactive). For the same compound, the GI50 [57] was 18.3 µM (inactive), the GI50 [46] was 25.8 µM (inactive) and the GI50 [47] was 10.4 µM (inactive). The GI50 [48] was 18.1 µM (inactive), the GI50 [49] was 18.6 µM (inactive) and the GI50 [50] was 28.1 µM (inactive). The GI50 [51] was 19.8 µM (inactive), the GI50 [52] was 19.1 µM (inactive) and the GI50 [53] was 20.1 µM (inactive). The GI50 [54] was 12.3 µM (inactive).
For `COc1cccc(/C=C2\CCC(C)(CN(C)C)C2=O)c1` (stereo not drawn), the GI50 [1] was 98.4 µM (inactive), the GI50 [2] was > 100 µM (inactive) and the GI50 [3] was > 100 µM (inactive). For the same compound, the GI50 [4] was 69 µM (inactive), the GI50 [5] was > 100 µM (inactive) and the GI50 [6] was 53.3 µM (inactive). The GI50 [7] was 28.4 µM (inactive), the GI50 [9] was > 100 µM (inactive) and the GI50 [10] was 57 µM (inactive). The GI50 [11] was 98.9 µM (inactive), the GI50 [12] was 46.5 µM (inactive) and the GI50 [13] was > 100 µM (inactive). For the same compound, the GI50 [15] was > 100 µM (inactive), the GI50 [16] was 92.7 µM (inactive) and the GI50 [55] was 30.7 µM (inactive). For the same compound, the GI50 [17] was > 100 µM (inactive), the GI50 [18] was > 100 µM (inactive) and the GI50 [19] was > 100 µM (inactive). For the same compound, the GI50 [20] was > 100 µM (inactive), the GI50 [21] was 34.4 µM (inactive) and the GI50 [22] was 23 µM (inactive). The GI50 [23] was 81.5 µM (inactive), the GI50 [25] was > 100 µM (inactive) and the GI50 [26] was > 100 µM (inactive). The GI50 [27] was > 100 µM (inactive), the GI50 [28] was > 100 µM (inactive) and the GI50 [30] was 29.4 µM (inactive). For the same compound, the GI50 [31] was 69.3 µM (inactive), the GI50 [32] was > 100 µM (inactive) and the GI50 [33] was 48.6 µM (inactive). For the same compound, the GI50 [34] was 35.6 µM, the GI50 [35] was > 100 µM (inactive) and the GI50 [36] was > 100 µM (inactive). For the same compound, the GI50 [37] was > 100 µM (inactive), the GI50 [58] was > 100 µM (inactive) and the GI50 [38] was 70.5 µM (inactive). The GI50 [39] was 58.2 µM (inactive), the GI50 [56] was > 100 µM (inactive) and the GI50 [40] was > 100 µM (inactive). For the same compound, the GI50 [41] was > 100 µM (inactive), the GI50 [42] was > 100 µM (inactive) and the GI50 [43] was > 100 µM (inactive). The GI50 [44] was > 100 µM (inactive), the GI50 [45] was > 100 µM (inactive) and the GI50 [57] was 74.3 µM (inactive). The GI50 [46] was > 100 µM (inactive), the GI50 [47] was 43.7 µM (inactive) and the GI50 [48] was > 100 µM (inactive). For the same compound, the GI50 [49] was 62.4 µM (inactive), the GI50 [50] was > 100 µM (inactive) and the GI50 [51] was 60.1 µM (inactive). For the same compound, the GI50 [52] was > 100 µM (inactive), the GI50 [53] was > 100 µM (inactive) and the GI50 [54] was 98.2 µM (inactive).

From ChEMBL document CHEMBL1201862, “PubChem BioAssay data set” (2004)
